The source made the active and inactive calls. The calls are words filed in the database; no cut-off is given here.
Legend:
Agelas conifera = experiment: Distribution in Carribean Agelas conifera was determined and expressed as % dry weight; type: functional
agelas longissima = experiment: Distribution in Carribean Agelas longissima was determined and expressed as % dry weight; type: functional
Cavia porcellus [1] = species: Cavia porcellus; experiment: Apparent affinity towards histamine receptor was determined and expressed as pD2
Agelas dispar = experiment: Distribution in Carribean Agelas dispar was determined and expressed as % dry weight; type: functional
Agelas clathrodes = experiment: Distribution in Carribean Agelas clathrodes was determined and expressed as % dry weight; type: functional
Cavia porcellus [2] = species: Cavia porcellus; experiment: Apparent affinity towards histamine receptor was determined and expressed as pD2; IA = Inactive

Compound `NC1=N/C(=C\C(O)CNC(=O)c2cc(Br)c(Br)[nH]2)C(=O)N1` (stereo not given) has a Dry weight (Agelas conifera) of 0.8%, a Dry weight (agelas longissima) of 1.1% and a pD2 (Cavia porcellus [1]) of 4.48. The Dry weight (Agelas dispar) was 3.5% and the Dry weight (Agelas clathrodes) was 3.2%.
`C[N+]1=CNC[C@]1(C)CC(NC(=O)c1cc(Br)c[nH]1)C(=O)[O-]` (stereo not given in full) was tested, and the Dry weight (Agelas conifera) was 0%, the Dry weight (agelas longissima) was 0% and the pD2 (Cavia porcellus [2]) was “inactive”. It also gave a Dry weight (Agelas dispar) of 0% and a Dry weight (Agelas clathrodes) of 7.2%.
`NC1=N/C(=C\CCNC(=O)c2cc(Br)c[nH]2)C(=O)N1` showed a Dry weight (Agelas conifera) of 3.5%, a Dry weight (agelas longissima) of 3.3% and a pD2 (Cavia porcellus [1]) of 5.33. For the same compound, the Dry weight (Agelas dispar) was 0.2% and the Dry weight (Agelas clathrodes) was 0.5%.
`NC1=N/C(=C\CCNC(=O)c2cc(Br)c(Br)[nH]2)C(=O)N1` showed a Dry weight (Agelas conifera) of 0.8%, a Dry weight (agelas longissima) of 1.1% and a pD2 (Cavia porcellus [1]) of 5.52. It also gave a Dry weight (Agelas dispar) of 3.5% and a Dry weight (Agelas clathrodes) of 3.2%.
For `Nc1nc([C@H]2[C@H](CNC(=O)c3cc(Br)c[nH]3)[C@@H](CNC(=O)c3cc(Br)c[nH]3)[C@@H]2c2c[nH]c(N)n2)c[nH]1`, the Dry weight (Agelas conifera) was 8.8%, the Dry weight (agelas longissima) was 2.5% and the pD2 (Cavia porcellus [1]) was 4.24. For the same compound, the Dry weight (Agelas dispar) was 15.5% and the Dry weight (Agelas clathrodes) was 15.1%.
Compound `NC1=N/C(=C\C(O)CNC(=O)c2cc(Br)c[nH]2)C(=O)N1` (stereo not given) has a Dry weight (Agelas conifera) of 3.5%, a Dry weight (agelas longissima) of 3.3% and a pD2 (Cavia porcellus [1]) of 4.34. It also gave a Dry weight (Agelas dispar) of 0.2% and a Dry weight (Agelas clathrodes) of 0.5%.
In the case of `Nc1ncc(/C=C/CNC(=O)c2cc(Br)c(Br)[nH]2)[nH]1`, the Dry weight (Agelas conifera) is reported as 2.1%, the Dry weight (agelas longissima) is reported as 4.1% and the pD2 (Cavia porcellus [1]) is reported as 4.02. For the same compound, the Dry weight (Agelas dispar) was 4.2% and the Dry weight (Agelas clathrodes) was 2.1%.

— ChEMBL document CHEMBL1150555, “Anti-histaminic activity of bromopyrrole alkaloids isolated from Caribbean Agelas sponges” (Bioorg Med Chem Lett, 1997)
